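Compound exposure: 48 hours, 5 concentrations, 96-well plates. Here, GI50 denotes the concentration required for 50% inhibition of growth. At the TGI there is no net growth.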 Where a SMILES comes first, the peptide text is derived from it. The star is where a group is joined. OSu = O=C1CCC(=O)N1O*
Key:
Assay in all cases: growth of human tumour cells (NCI), 48 h
[1] = system: HOP-92 NSCLC
[2] = system: NCI-H460 lung
[3] = system: CCRF-CEM leukemia
[4] = system: HOP-62 NSCLC
[5] = system: HL-60(TB) leukemia
[6] = system: SN12C renal
[7] = system: A498 renal
[8] = system: T-47D breast
[9] = system: NCI/ADR-RES ovarian
[10] = system: LOX IMVI melanoma
[11] = system: UO-31 renal
[12] = system: M14 melanoma
[13] = system: SNB-75 CNS
[14] = system: NCI-H226 lung
[15] = system: PC-3 prostate
[16] = system: RXF 393 renal
[17] = system: MDA-MB-435

| Compound | TGI [1] [µM] | TGI [2] [µM] | TGI [3] [µM] | TGI [4] [µM] | TGI [5] [µM] | TGI [6] [µM] | TGI [7] [µM] | TGI [8] [µM] | TGI [9] [µM] | TGI [10] [µM] | TGI [11] [µM] | TGI [12] [µM] | TGI [13] [µM] | TGI [14] [µM] | TGI [15] [µM] | TGI [16] [µM] | TGI [17] [µM] | GI50 [16] [µM] |
| --- | --- | --- | --- | --- | --- | --- | --- | --- | --- | --- | --- | --- | --- | --- | --- | --- | --- | --- |
| Cc1ccc(Nc2nc(NNC(=O)Cc3ccccc3)nc(NNC(=O)c3ccncc3)n2)cc1 | > 10 | > 10 | > 10 | > 10 | > 10 | > 10 | > 10 | > 10 | > 10 | > 10 | > 10 | > 10 | > 10 |  |  |  |  |  |
| COc1ccc(C2Oc3cc(OC)c(OC)cc3C2CCl)cc1OC (stereo not drawn) | > 100 | > 100 | > 100 | > 100 | > 100 | > 100 | > 100 |  |  | > 100 | > 100 | > 100 | > 100 | > 100 |  |  |  |  |
| NCCCCC(NC(=O)C(N)Cc1ccc(O)cc1)C(=O)NC(CCCCN)C(=O)NC(CCCCN)C(=O)ON1C(=O)CCC1=O (stereo not drawn) (H-YKKK-OSu; configuration not given here) | > 100 | > 100 |  | > 100 | > 100 | > 100 | > 100 | > 100 |  |  | > 100 | > 100 | > 100 | > 100 | > 100 | > 100 |  |  |
| COc1cc(OCCN(C)C)c2[nH]c(C(=O)N3CC(CCl)c4ccc(N)cc43)cc2c1 (stereo not drawn) | 0.617 |  | 0.0684 | 0.0507 |  |  | 0.508 |  | 1 |  | 2.25 | 1.13 | 0.565 | 2.58 | 1.34 | 0.033 | 0.281 |  |
| COc1ccc(NC(=S)c2ccc(CN3CCCCC3)s2)cc1 |  | 37.4 | 34.5 | 52.7 | 31.9 | > 100 | 31.5 | 60.7 | 93.8 | 33.3 | 35.7 | 35.4 |  |  | 62.2 |  | 34.7 |  |
| Cc1cn(C2OC(CO[Si](C)(C)C(C)(C)C)C(N(C)O[Si](C)(C)C(C)(C)C)C2[Se]c2ccccc2)c(=O)[nH]c1=O (stereo not drawn) | 10.9 |  | > 100 | 43.1 | > 100 | > 100 | 49.5 |  | 58 | 10.2 | 13.7 | 50.8 | 21.4 | 21.7 | 34 |  | 21 |  |
| COCCOCOC(CCCCO)c1cc(C)c(O[Si](C)(C)C(C)(C)C)c(C)c1 (stereo not drawn) |  | 20.2 | 18.1 | 23 | 6.02 | 8.73 | 26.9 |  |  | 18.7 | 17.2 | 23.1 | 23.9 | 10.3 |  | 10.5 |  |  |
| COC(=O)c1ccc(Cc2cc(Cc3ccc(C(=O)OC)cc3)cc(Cc3ccc(C(=O)OC)cc3)c2)cc1 | > 25 | > 25 |  | > 25 | > 25 | > 25 | > 25 |  | > 25 | > 25 | > 25 | > 25 | > 25 | > 25 | > 25 |  | > 25 |  |
| COc1cc(-c2cccs2)sc1-c1cccs1 | 78.9 | > 100 | > 100 |  | 36.6 | > 100 |  |  |  | > 100 | > 100 | > 100 | 66.5 | > 100 |  | 54.1 |  |  |
| O=c1cc(-c2ccc3c(c2)OCO3)[nH]c2cc3c(cc12)OCO3 | > 100 | > 100 | > 100 | 63 | 66.6 | > 100 |  |  |  | > 100 | > 100 | > 100 | 13.7 | > 100 |  | 66.5 |  | 20.8 |
| CCOC(=O)C12OC(OCC)(CC1(OCC)OCC)C1(CC1)C2=O (stereo not drawn) | > 100 | > 100 | > 100 | > 100 |  | > 100 | > 100 |  | > 100 | > 100 | > 100 | > 100 | > 100 | > 100 | > 100 |  | > 100 |  |
| O=C1c2cc3c(cc2CC12Cc1ccc4c(c1C2=O)CCC4)CCCC3 (stereo not drawn) | > 100 | > 100 | > 100 | > 100 | > 100 |  | > 100 | > 100 | > 100 | > 100 | > 100 | > 100 | > 100 |  | > 100 | > 100 | > 100 |  |
| O=C(Nc1c(O)[nH]c(=S)[nH]c1=O)c1ccccc1 | > 100 | > 100 | > 100 | > 100 | > 100 | > 100 | > 100 |  |  | > 100 | > 100 | > 100 | > 100 | > 100 |  |  |  |  |
| C[C@]12[C@@H]3CC[C@H]1[C@@H](O)C(=O)N2CC3 | > 100 | > 100 | > 100 | > 100 | > 100 | > 100 | > 100 | > 100 | > 100 | > 100 | > 100 | > 100 | > 100 |  | > 100 | > 100 | > 100 |  |
| O=C1/C(=C\c2ccc(Cl)cc2Cl)Sc2scc(-c3ccc(O)c(O)c3)[n+]21 | 23.1 | 48.2 | 39.4 | 30.1 | 29.8 | 30.3 |  |  | 35.6 | 40.8 | 26.8 | 40.6 | 53.4 | 35.4 | 36.4 | 37.1 | 57.7 |  |
| CCOC(=O)CCCSCCCC(=O)CCCSCCCC(=O)OCC | > 100 | > 100 | > 100 | > 100 | > 100 | > 100 |  | > 100 | > 100 | > 100 | > 100 | > 100 | > 100 |  | > 100 |  | > 100 |  |

Source: PubChem BioAssay (NCI)
